IC50 data for 26 compounds are collected here from US8389557B2, “Triazole derivatives useful as Axl inhibitors” (Rigel Pharmaceuticals, Inc., priority 2005, dated 2013).

Counter-ions that a name gives are not always drawn. Where only a bound is given, the exact number is not on record here.

In this assay the target is T1, Axl (Homo sapiens, UniProt P30530).
T1 construct: endogenous in cells; host or cells: HeLa cells
T1 sequence (P30530 26-894): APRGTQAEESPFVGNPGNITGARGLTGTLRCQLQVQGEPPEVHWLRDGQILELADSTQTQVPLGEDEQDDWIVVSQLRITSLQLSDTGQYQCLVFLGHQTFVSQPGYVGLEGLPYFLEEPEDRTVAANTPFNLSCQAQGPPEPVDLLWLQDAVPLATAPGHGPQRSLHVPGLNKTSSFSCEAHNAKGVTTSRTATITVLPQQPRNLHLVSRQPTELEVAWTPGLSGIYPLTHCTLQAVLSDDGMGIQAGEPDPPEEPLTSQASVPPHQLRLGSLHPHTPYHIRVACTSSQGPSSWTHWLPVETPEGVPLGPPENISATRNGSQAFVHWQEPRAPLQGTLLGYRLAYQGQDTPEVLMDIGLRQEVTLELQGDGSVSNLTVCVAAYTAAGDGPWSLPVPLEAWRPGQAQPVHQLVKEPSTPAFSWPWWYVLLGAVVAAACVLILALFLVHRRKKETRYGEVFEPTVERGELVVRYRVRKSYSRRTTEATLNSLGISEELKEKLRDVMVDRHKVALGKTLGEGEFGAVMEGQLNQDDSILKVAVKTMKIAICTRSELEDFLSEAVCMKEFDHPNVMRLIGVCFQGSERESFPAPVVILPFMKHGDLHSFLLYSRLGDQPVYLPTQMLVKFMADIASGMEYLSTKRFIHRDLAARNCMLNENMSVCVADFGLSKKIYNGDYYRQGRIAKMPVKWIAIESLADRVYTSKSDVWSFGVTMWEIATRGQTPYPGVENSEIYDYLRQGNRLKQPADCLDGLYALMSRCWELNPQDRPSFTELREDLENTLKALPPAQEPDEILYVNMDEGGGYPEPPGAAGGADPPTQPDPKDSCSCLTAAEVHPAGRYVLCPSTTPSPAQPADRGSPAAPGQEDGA
Briefly: Phospho-Akt in-cell Western assay (inhibition of Axl activity). It counts as cell-based. An outline of the steps:
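HeLa cells on poly-L-lysine, starved 24 h in 0.5% FCS DMEM with Axl/Fc 500 ng/mL, pre-treated with compound 1 h at 37° C. Axl stimulated 5 min by anti-Axl/anti-mouse antibody cross-linking. Fixed cells probed with anti-phospho-Akt and HRP secondary, chemiluminescence read.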

Setting [1] is: inhibition of Axl activity, Table 1.
[2] abbreviates: inhibition of Axl activity, phospho-Akt in-cell Western assay, Table 1.
The mark [3] stands for this setting: Table 5, Hela cells, Axl antibody cross-linking stimulation, phospho-Akt chemiluminescence.
[4] abbreviates: Table 3, Hela cells, Axl antibody cross-linking stimulation, phospho-Akt chemiluminescence.
The mark [5] stands for this setting: Table 2, Hela cells, Axl antibody cross-linking stimulation, phospho-Akt chemiluminescence.
Setting [6] is: Table 7, Hela cells, Axl antibody cross-linking stimulation, phospho-Akt chemiluminescence.

For the compound `CC(C)Oc1cccc(C(=O)n2nc(Nc3ccc(OCCN4CCOCC4)cc3)nc2N)c1` [compound 169, 5-amino-1-(3-(iso-propoxy)phenyl)carbonyl-3-[4-[2-(morpholin-4-yl)ethoxy]phenylamino]-1H-1,2,4-triazole], under setting [1], the 50% inhibitory concentration (IC50) is under 1 µM.
In turn, `CC(C)(C)Oc1ccc(C(=O)n2nc(Nc3ccc(OCCN4CCCC4=O)cc3)nc2N)cc1` [compound 342, 5-amino-1-(4-(tert-butoxy)phenyl)carbonyl-3-[4-[2-(pyrrolidin-2-on-1-yl)ethoxy]phenylamino]-1H-1,2,4-triazole] returned an IC50 under setting [2] of under 1 µM.
`Cc1cccc(C(=O)n2nc(Nc3cccc(O)c3)nc2N)c1` [(Ia-7), 5-amino-3-[3-(hydroxy)phenylamino]-1-(3-(methyl)phenyl)carbonyl-1H-1,2,4-triazole] returned an IC50 under setting [1] of 1 to 10 µM.
`Nc1nc(Nc2ccc(OCCN3CCCCC3)cc2)n(C(=O)Nc2ccc3c(c2)OCO3)n1` [compound 193, 3-amino-N-(1,3-benzodioxol-5-yl)-5-[4-[2-(piperidin-1-yl)ethoxy]phenylamino]-1H-1,2,4-triazole-1-carboxamide] had a 50% inhibitory concentration (IC50) (Table 8, Hela cells, Axl antibody cross-linking stimulation, phospho-Akt chemiluminescence) of 1 to 10 µM.
For `Nc1nc(Nc2ccc(OCCN3CCCC3)cc2)nn1C(=O)c1ccc(-c2ccccc2)cc1` [compound 277, 5-amino-1-(4-(phenyl)phenyl)carbonyl-3-[4-[2-(pyrrolidin-1-yl)ethoxy]phenylamino]-1H-1,2,4-triazole], the half-maximal inhibitory concentration (IC50) under setting [2] is under 1 µM.
As for `CN(C)c1ccc(C(=O)n2nc(NC3C4C=CC(C4)C3C(N)=O)nc2N)cc1` (centres unmarked) [compound 350, 5-amino-1-(4-(dimethylamino)phenyl)carbonyl-3-[(5-(aminocarbonyl)bicyclo[2.2.1]hept-2-en-6-yl)amino]-1H-1,2,4-triazole], the concentration for half-maximal inhibition (IC50) under setting [3] is over 20 µM.
Under setting [1], `Nc1ccc(C(=O)n2nc(Nc3ccc4c(c3)OCCO4)nc2N)cc1` [compound 243, 5-amino-1-(4-aminophenyl)carbonyl-3-(1,4-benzodioxan-6-yl)amino-1H-1,2,4-triazole] displayed an IC50 of 1 to 10 µM.
Consider `Nc1nc(Nc2ccc(OCCN3CCCC3)cc2)nn1C(=O)c1ccc2c(c1)OCO2` [compound #16, 5-Amino-1-(1,3-benzodioxol-5-yl)carbonyl-3-[4-[2-(pyrrolidin-1-yl)ethoxy]phenylamino]-1H-1,2,4-triazole], for which the IC50 under setting [2] was under 1 µM.
`Nc1nc(Nc2cccc(OCCN3CCOCC3)c2)nn1C(=O)c1ccccc1` [(Ia-26), 5-amino-3-[3-[2-(morpholin-4-yl)ethoxy]phenylamino]-1-phenylcarbonyl-1H-1,2,4-triazole, hydrogen chloride salt] gave an IC50 under setting [1] of over 20 µM.
`CC(C)(C)Oc1cccc(C(=O)n2nc(NC3C4C=CC(C4)C3C(N)=O)nc2N)c1` (centres unmarked) [compound 348, 5-amino-1-(3-(tert-butoxy)phenyl)carbonyl-3-[(5-(aminocarbonyl)bicyclo[2.2.1]hept-2-en-6-yl)amino]-1H-1,2,4-triazole]: the concentration for half-maximal inhibition (IC50) under setting [3] is over 20 µM.
`Nc1nc(Nc2ccc(OCCN3CCCC3)cc2)nn1C(=O)c1cc2ccccc2s1` [compound 367, 5-amino-1-(benzo[b]thiophen-2-yl)carbonyl-3-[4-[2-(pyrrolidin-1-yl)ethoxy]phenylamino]-1H-1,2,4-triazole] showed an IC50 under setting [4] of under 1 µM.
`Cc1cc(C(=O)n2nc(Nc3ccc4c(c3)OCCO4)nc2N)ccc1F` [compound 242, 5-amino-3-(1,4-benzodioxan-6-yl)amino-1-[(4-fluoro-3-methyl)phenyl]carbonyl-1H-1,2,4-triazole]: the IC50 under setting [1] was over 20 µM.
In the case of `Nc1nc(Nc2ccc(OCCN3CCCC3)cc2)nn1C(=O)c1ccc2[nH]ccc2c1` [compound #3, 5-Amino-1-(1H-indol-5-yl)carbonyl-3-[4-[2-(pyrrolidin-1-yl)ethoxy]phenylamino]-1H-1,2,4-triazole], under setting [4], the IC50 is under 1 µM.
In the case of `Nc1nc(Nc2ccc3c(c2)OCCO3)nn1C(=O)c1ccc(OCC(F)(F)F)cc1` [compound 230, 5-amino-3-(1,4-benzodioxan-6-yl)amino-1-(4-(2,2,2-trifluoroethoxy)phenyl)carbonyl-1H-1,2,4-triazole], the IC50 under setting [1] was over 20 µM.
In turn, `COc1cc(Nc2nc(N)n(C(=O)c3ccc(-c4csnn4)cc3)n2)ccc1OCCN1CCCC1` [compound 319, 5-amino-1-(4-(1,2,3-thiadiazol-4-yl)phenyl)carbonyl-3-[3-methoxy-4-[2-(pyrrolidin-1-yl)ethoxy]phenylamino]-1H-1,2,4-triazole] yielded an IC50 under setting [2] of under 1 µM.
Consider `Cc1ccc(C(=O)n2nc(Nc3ccc(N4CCOCC4)cc3)nc2N)cc1` [compound 54, 5-amino-1-(4-(methyl)phenyl)carbonyl-3-(4-(morpholin-4-yl)phenylamino)-1H-1,2,4-triazole], for which the half-inhibitory concentration (IC50) under setting [1] is under 1 µM.
Same read-out and setting: the same measure for `CCOc1ccc(C(=O)n2nc(Nc3ccc4c(c3)OCCO4)nc2N)cc1` [compound 114]: 1 to 10 µM.
Turning to `Nc1nc(Nc2ccc3c(c2)OCCO3)nn1C(=O)c1cccc(OC2CCCC2)c1` [compound 127, 5-amino-1-(3-(cyclopentoxy)phenyl)carbonyl-3-(1,4-benzodioxan-6-yl)amino-1H-1,2,4-triazole], the half-maximal inhibitory concentration (IC50) under setting [1] was in the range of 1 to 10 µM.
Compound `Cc1cccc(C(=O)n2nc(Nc3ccc4oc(COC5CCCCO5)cc4c3)nc2N)c1` (centres unmarked) [compound 130, 5-amino-3-[N-(2-(tetrahydropyran-2-yloxy)methylbenzofuran-5-yl)-amino]-1-(3-(methyl)phenyl)carbonyl-1H-1,2,4-triazole] displayed a half-maximal inhibitory concentration (IC50) under setting [3] of 1 to 10 µM.
Same read-out and setting: under `Cc1cccc(C(=O)n2nc(Nc3ccc4ncsc4c3)nc2N)c1` [compound 250, 5-amino-3-(benzothiazol-6-yl)amino-1-(3-methylphenyl)carbonyl-1H-1,2,4-triazole] stands 1 to 10 µM.
The compound `Nc1nc(Nc2ccc3c(c2)OCCO3)n(C(=O)c2cccc(OCc3ccccc3)c2)n1` [compound 155, 3-amino-1-(3-(benzyloxy)phenyl)carbonyl-5-(1,4-benzodioxan-6-yl)amino-1H-1,2,4-triazole] displayed a half-inhibitory concentration (IC50) under setting [5] of over 20 µM.
In turn, `Cc1ccc(C(=O)n2nc(Nc3ccccc3F)nc2N)cc1` [compound 129, 5-amino-3-[2-(fluoro)phenylamino]-1-(4-(methyl)phenyl)carbonyl-1H-1,2,4-triazole] came in with an IC50 under setting [1] of over 20 µM.
`Cc1cccc(C(=O)n2nc(Nc3ccc4occc4c3)nc2N)c1` [compound 229, 5-amino-3-(benzofuran-5-yl)amino-1-(3-methylphenyl)carbonyl-1H-1,2,4-triazole]: the IC50 under setting [3] fell in the range of 1 to 10 µM.
`COc1cc(NC(=O)n2nc(Nc3ccc(OCCN4CCCCC4)cc3)nc2N)cc(OC)c1` [compound 33, 5-amino-N-(3,5-(dimethoxy)phenyl)-3-[4-[2-(piperidin-1-yl)ethoxy]phenylamino]-1H-1,2,4-triazole-1-carboxamide]: under setting [6], the half-maximal inhibitory concentration (IC50) is under 1 µM.
As for `Cc1ccc(NC(=O)n2nc(Nc3ccc(OCCN4CCCC4)cc3)nc2N)cc1` [compound 37, 5-amino-N-(4-methylphenyl)-3-[4-[2-(pyrrolidin-1-yl)ethoxy]phenylamino]-1H-1,2,4-triazole-1-carboxamide], the half-maximal inhibitory concentration (IC50) under setting [6] lay within 1 to 10 µM.
Consider `CC(C)Oc1ccc(C(=O)n2nc(N)nc2Nc2ccc(N3CCOCC3)cc2)cc1` [compound 49, 3-amino-1-(4-(iso-propoxy)phenyl)carbonyl-5-(4-(morpholin-4-yl)phenylamino]-1H-1,2,4-triazole], for which, under setting [5], the IC50 is over 20 µM.
